Results on eleven molecules are retold here after ChEMBL document CHEMBL3124755, “Synthesis and tumor inhibitory activity of novel coumarin analogs targeting angiogenesis and apoptosis” (Eur J Med Chem, 2014).

Active and inactive are the calls of the source. The rule behind the calls is not given here.

Series [1] is described as follows: (§1) Cytotoxicity against mouse DLA cells after 48 hrs by LDH release assay. It is filed as functional, cell-based. Background: LDH in the medium is a marker of cell lysis.
The nature of series [2]: Cytotoxicity against mouse EAC cells after 48 hrs by MTT assay. It is filed as functional, cell-based. To be noted: Ehrlich. In general terms: Tetrazolium assays rely on reduction of a dye to a coloured formazan, in cell work by metabolically active cells.
The nature of series [3]: Cytotoxicity against mouse DLA cells after 48 hrs by trypan blue exclusion assay. It is filed as functional, cell-based.
A short description of series [4]: Cytotoxicity against mouse DLA cells after 48 hrs by MTT assay. It is filed as functional, cell-based.
A short description of series [5]: Cytotoxicity against mouse EAC cells after 48 hrs by trypan blue exclusion assay. It is filed as functional, cell-based. To be noted: Ehrlich.
The nature of series [6]: (§2) Cytotoxicity against mouse EAC cells after 48 hrs by LDH release assay. It is filed as functional, cell-based. The note with it: Ehrlich.
Series [7] relates to Ehrlich. Description: Antitumor activity against ip dosed mouse EAC cells allografted in Swiss albino mouse assessed as decrease in body weight administered 3 doses every alternate days after three days of tumor growth. It is filed as functional, organism-based.
Series [8] relates to Mus musculus. Description: Antiangiogenic activity in mouse EAC cells allografted Swiss albino mouse model assessed as decrease in microvessel density in peritoneum at 75 mg/kg, ip 3 doses administered every alternate days after three days of tumor growth by hematoxylin and eosin staining method. It is filed as functional, organism-based. The arrangement: dose 75 mg/kg. The note with it: Ehrlich.

Series [9] relates to Mus musculus. Description: Toxicity in Swiss albino mouse assessed as change in spleen morphology at 75 mg/kg, ip administered for 10 days relative to untreated control. It is filed as organism-based. Set-up: dose 75 mg/kg, route intraperitoneal. The note with it: in vivo, 240 h.
Series [10] has as its system Ehrlich. Description: Antitumor activity against mouse EAC cells allografted in Swiss albino mouse assessed as formation of apoptotic bodies in tumor cells at 75 mg/kg, ip 3 doses administered every alternate days after three days of tumor growth by Giemsa staining. The arrangement: dose 75 mg/kg. It is filed as functional, organism-based.
Series [11] has as its system Mus musculus. Description: Toxicity in Swiss albino mouse assessed as change in liver morphology at 75 mg/kg, ip administered for 10 days relative to untreated control. It is filed as organism-based. Set-up: dose 75 mg/kg, route intraperitoneal. The note with it: in vivo, 240 h.
Series [12] deals with Mus musculus. Description: Antiangiogenic activity in mouse EAC cells allografted Swiss albino mouse model assessed as decrease in peritoneal angiogenesis at 75 mg/kg, ip 3 doses administered every alternate days after three days of tumor growth. It is filed as functional, organism-based. Set-up: dose 75 mg/kg. To be noted: Ehrlich.
Series [13] relates to Mus musculus. Description: Toxicity in Swiss albino mouse assessed as alkaline phosphatase level at 75 mg/kg, ip administered for 10 days (reference value: 128.55 +/- 2.55 IU/L). It is filed as organism-based. The arrangement: dose 75 mg/kg, route intraperitoneal. To be noted: in vivo, 240 h.
Series [14] has as its system DLA. Description: Antitumor activity against mouse DLA cells allografted in Swiss albino mouse assessed as inhibition of tumor growth measuring tumor volume at 75 mg/kg, ip administered alternate days total of 10 doses relative to untreated control. It is filed as functional, organism-based. The arrangement: dose 75 mg/kg.
For series [15], the system named is DLA. Described as §1. It is filed as functional, cell-based.
The test system of series [16] is Mus musculus. Description: Toxicity in Swiss albino mouse assessed as urea level at 75 mg/kg, ip administered for 10 days (reference value: 42 +/- 2.78 mg/dl). Set-up: dose 75 mg/kg, route intraperitoneal. To be noted: in vivo, 240 h. It is filed as organism-based.
The subject of series [17] is Chorioallantoic membrane. Description: In vivo antiangiogenic activity in 12 days fertilized chicken embryo chorioallantoic membrane model assessed as inhibition of rVEGF165-induced angiogenesis at 10 uM by photographic analysis relative to control. It is filed as functional, organism-based. The note with it: Gallus gallus.
For series [18], the system named is Chorioallantoic membrane. Description: Ex vivo antiangiogenic activity in 2 days fertilized chicken embryo chorioallantoic membrane model assessed as inhibition of rVEGF165-induced angiogenesis at 10 uM after 72 hrs by photographic analysis relative to control. The note with it: Gallus gallus. It is filed as functional, tissue-based.
Series [19] in a line: Antitumor activity against mouse EAC cells allografted in Swiss albino mouse assessed as increase in life span at 75 mg/kg, ip 3 doses administered every alternate days after three days of tumor growth (reference value: 10 days). It is filed as functional, Ehrlich. To be noted: route intraperitoneal.
For series [20], the system named is Ehrlich. Description: Antitumor activity against mouse EAC cells allografted in Swiss albino mouse assessed as decrease in ascites fluid secretion at 75 mg/kg, ip 3 doses administered every alternate days after three days of tumor growth. It is filed as functional, organism-based. Set-up: dose 75 mg/kg.
Series [21] can be described thus: Antitumor activity against mouse EAC cells allografted in Swiss albino mouse model assessed as increase in body weight at 75 mg/kg, ip 3 doses administered every alternate days after three days of tumor growth measured after 10 days. It is filed as functional, Ehrlich. The note with it: route intraperitoneal.
Series [22] has as its system Ehrlich. Description: Antitumor activity against mouse EAC cells allografted in Swiss albino mouse assessed as irregular tumor cell shape at 75 mg/kg, ip 3 doses administered every alternate days after three days of tumor growth by Giemsa staining. The arrangement: dose 75 mg/kg. It is filed as functional, organism-based.
Series [23] deals with Ehrlich. Description: Antitumor activity against mouse EAC cells allografted in Swiss albino mouse assessed as tumor cell shrinkage at 75 mg/kg, ip 3 doses administered every alternate days after three days of tumor growth. It is filed as functional, organism-based. Set-up: dose 75 mg/kg.
Series [24] relates to Ehrlich. Description: Antitumor activity against mouse EAC cells allografted in Swiss albino mouse assessed as membrane blebbing of tumor cells at 75 mg/kg, ip 3 doses administered every alternate days after three days of tumor growth by Giemsa staining. It is filed as functional, organism-based. The arrangement: dose 75 mg/kg.
For series [25], the system named is Ehrlich. Description: Antitumor activity against mouse EAC cells allografted in Swiss albino mouse assessed as DNA fragmentation in tumor cells at 75 mg/kg, ip 3 doses administered every alternate days after three days of tumor growth. It is filed as functional, organism-based. The arrangement: dose 75 mg/kg.
Series [26] relates to Ehrlich. Description: Antitumor activity against mouse EAC cells allografted in Swiss albino mouse assessed as inhibition of tumor growth at 75 mg/kg, ip 3 doses administered every alternate days after three days of tumor growth. It is filed as functional, organism-based. The arrangement: dose 75 mg/kg.
Series [27] has as its system DLA. Description: Antitumor activity against mouse DLA cells allografted in Swiss albino mouse assessed as tumor regression at 75 mg/kg, ip administered alternate days total of 10 doses measured on day 35 relative to untreated control. It is filed as functional, organism-based. The arrangement: dose 75 mg/kg.
The subject of series [28] is Ehrlich. The series is described as §2. It is filed as functional, cell-based.
Series [29] is described as follows: Antitumor activity against mouse DLA cells allografted in Swiss albino mouse assessed as increase in lifespan at 75 mg/kg, ip administered alternate days total of 10 doses relative to untreated control. To be noted: route intraperitoneal. It is filed as functional.
Series [30] has as its system Mus musculus. Description: Toxicity in Swiss albino mouse assessed as creatinine level at 75 mg/kg, ip administered for 10 days (reference value: 0.59 +/- 1.05 mg/dl). The arrangement: dose 75 mg/kg, route intraperitoneal. The note with it: in vivo, 240 h. It is filed as organism-based.
For series [31], the system named is Ehrlich. Description: Antitumor activity against mouse EAC cells allografted in Swiss albino mouse assessed as condensed nucleus in tumor cells at 75 mg/kg, ip 3 doses administered every alternate days after three days of tumor growth. It is filed as functional, organism-based. Set-up: dose 75 mg/kg.

By IC50 is commonly meant the concentration that gives 50% inhibition. A high value points to lower potency.

Regarding `Cc1ccc(OCC(=O)NNC(=O)c2cc3ccccc3oc2=O)c(C(=O)c2ccc(Cl)cc2)c1`, the IC50 in series [1] stood at 60.4 µM; in series [2] it was 56.6 µM; in [3], 61.6 µM; in series [4], 59.1 µM; in [5], 57.8 µM; in series [6] it was 58 µM.

On to `Cc1ccc(OCC(=O)NNC(=O)c2cc3ccccc3oc2=O)c(C(=O)c2ccccc2Br)c1`, for which the Activity result with Ehrlich [7] was “Dose-dependent effect”; in the series with Mus musculus [9], “Non-toxic”; with Mus musculus [11], “Non-toxic”; in the series on Mus musculus [13], 132.65 IU/L; in the series with DLA [15] it was “Dose-dependent effect”; with Mus musculus [16], 39 mg/dL. For the same molecule, the Activity in [21] is 10%; in the series with Ehrlich [28], “Dose-dependent effect”; with Mus musculus [30], 0.5 mg/dL. The outcome in the series on Mus musculus [8], in the series with Ehrlich [10], with Mus musculus [12], in the series on Ehrlich [20], in the series on Ehrlich [22] and with Ehrlich [23] was Active. The outcome with Ehrlich [24], in the series on Ehrlich [25], with DLA [27] and with Ehrlich [31] was Active. For the same molecule, the TGI entry with DLA [14] and in the series with Ehrlich [26] was “Active” each time. For the same molecule, the IC50 is 10.6 µM in series [1]; 8 µM in series [2]; 10 µM in series [3]; 10 µM in series [4]; 9 µM in series [5]; 9.4 µM in [6]. In addition, the inhibition entry with Chorioallantoic membrane [17] and with Chorioallantoic membrane [18] was “Active” in each case. In addition, in series [19], the Time is 23 days. In addition, the “fold change (FC)” value in series [29] amounted to 3.

With `O=c1[nH]cc(F)c(=O)[nH]1` [FLUOROURACIL], the IC50 was determined as 15.8 µM in series [1]; 14.3 µM in [2]; 14.3 µM in series [3]; 15.7 µM in [4]; 16.4 µM in series [5]; 16.3 µM in series [6].

Turning to `Cc1ccc(OCC(=O)NNC(=O)c2cc3ccccc3oc2=O)c(C(=O)c2ccccc2Cl)c1`, the IC50 in series [1] came to 54.4 µM; in series [2] it was 45.2 µM; in series [3] it was 54.8 µM; in [4], 53.8 µM; in series [5] it was 48.4 µM; in series [6], 47.6 µM.

For the molecule `Cc1ccc(OCC(=O)NNC(=O)c2cc3ccccc3oc2=O)c(C(=O)c2ccc(Br)cc2)c1`, the IC50 in series [1] stood at 95.3 µM; in series [2], 87.3 µM; in series [3] it was 95.5 µM; in series [4], 92.2 µM; in series [5], 91.1 µM; in series [6] it was 89 µM.

For `Cc1ccc(OCC(=O)NNC(=O)c2cc3ccccc3oc2=O)c(C(=O)c2ccc(F)cc2)c1`, the IC50 in series [1] worked out at 45.7 µM; in series [2], 39.7 µM; in series [3] it was 46.1 µM; in series [4], 43.4 µM; in [5], 43.4 µM; in series [6], 40.8 µM.

`Cc1ccc(OCC(=O)NNC(=O)c2cc3ccccc3oc2=O)c(C(=O)c2cccc(Cl)c2)c1`: the IC50 in series [1] is 67.4 µM; in [2] it was 64.9 µM; in [3] it was 68.6 µM; in series [4], 65.5 µM; in series [5] it was 67.3 µM; in series [6], 65.4 µM.

Consider `Cc1ccc(C(=O)c2cc(C)ccc2OCC(=O)NNC(=O)c2cc3ccccc3oc2=O)cc1`, for which the IC50 turned out to be 87.2 µM in [1]; 78.1 µM in series [2]; 87.3 µM in series [3]; 84.6 µM in series [4]; 82.6 µM in series [5]; 81.4 µM in series [6].

Consider `Cc1ccc(OCC(=O)NNC(=O)c2cc3ccccc3oc2=O)c(C(=O)c2cccc(Br)c2)c1`, for which the IC50 turned out to be 69.8 µM in series [1]; 66.4 µM in series [2]; 71.9 µM in [3]; 68.5 µM in series [4]; 68.5 µM in [5]; 68.1 µM in [6].

As to `Cc1ccc(OCC(=O)NNC(=O)c2cc3ccccc3oc2=O)c(C(=O)c2ccccc2)c1`, the IC50 in series [1] is 87 µM; in series [2] it was 78.4 µM; in series [3], 89.1 µM; in series [4], 86.4 µM; in series [5], 86.5 µM; in series [6], 81.1 µM.

Turning to `COc1ccc(C(=O)c2cc(C)ccc2OCC(=O)NNC(=O)c2cc3ccccc3oc2=O)cc1`, the IC50 was 43.4 µM in series [1]; 38.4 µM in series [2]; 43.5 µM in series [3]; 42 µM in series [4]; 41.2 µM in [5]; 41.2 µM in series [6].
